According to the OligoGym collection:
Several values for one entry are separate records, joined by “and”; a condition that tells them apart may be missing. Equal entries are not always repeated. After the bases stand the sugars from the 5' end (letter, count) and the backbone: PS all phosphorothioate, else s phosphorothioate and o phosphodiester by linkage. Methylation of C is not given here. e = 2'-O-(2-methoxyethyl) (MOE); k = constrained ethyl (cEt); d = 2'-deoxy (DNA); m = 2'-O-methyl

Biological target: HSD17B13
Settings: ASO, HepaRG

Row | Sequence | target mRNA inhibition (1 µM) | also measured
1 | AGTACCAAGACACTAA (sugars k3 d10 k3, PS) | 66% | –
2 | CTAAATTATTGCCTGA (sugars k3 d10 k3, PS) | 39% | –
3 | AGGCTAAAATGGTCAT (sugars k3 d10 k3, PS) | 36% | –
4 | TAATAGCCAGTACAGT (sugars kkdddddddddkekek, PS) | 44% | –
5 | CATAATAATAGCTCTA (sugars kkdddddddddkekek, PS) | 13% | –
6 | AGGGTCCACTTTTGGT (sugars k3 d10 k3, PS) | 11% | –
7 | GTCGGATTATTTTTTC (sugars k3 d10 k3, PS) | 61% | –
8 | ACCGTATTCCCAACGC (sugars k3 d10 k3, PS) | 90% | target mRNA inhibition (0.02 µM): 14%; target mRNA inhibition (0.078 µM): 35%; target mRNA inhibition (0.313 µM): 76%; target mRNA inhibition (1.25 µM): 83%; target mRNA inhibition (5 µM): 94%
9 | TAGTCTTCAGCAAAGT (sugars k3 d1 m1 d8 k3, PS) | 41% | –
10 | TTAGGATTAATTCCCT (sugars k3 d10 k3, PS) | 14% | –
11 | GATTGTTACATCACCC (sugars k3 d10 k3, PS) | 65% | target mRNA inhibition (0.02 µM): 15%; target mRNA inhibition (0.078 µM): 32%; target mRNA inhibition (0.313 µM): 33%; target mRNA inhibition (1.25 µM): 74%; target mRNA inhibition (5 µM): 91%
12 | TTTTAATACGACTTCC (sugars k3 d10 k3, PS) | 57% | –
13 | CCAGUACAGTTCCTTT (sugars k3 d1 m1 d8 k3, PS) | 51% | –
14 | ATACGCATGCGCAGTG (sugars k3 d10 k3, PS) | 38% | –
15 | GACACTAATTTAGTCA (sugars k3 d10 k3, PS) | 11% | –
16 | TAGCCAGTACAGTTCC (sugars k3 d10 k3, PS) | 52% | –
17 | AGGAGTAGTGGAGCCA (sugars k3 d10 k3, PS) | 16% | –
18 | GTGCAAGATGATGACA (sugars k3 d10 k3, PS) | 19% | –
19 | ACCTTATTAATATCCC (sugars k3 d10 k3, PS) | 71% and 50% | target mRNA inhibition (0.02 µM): 0%; target mRNA inhibition (0.078 µM): 0%; target mRNA inhibition (0.313 µM): 0%; target mRNA inhibition (1.25 µM): 72%; target mRNA inhibition (5 µM): 90%
20 | GCTTTAATTTTTGAGC (sugars k3 d10 k3, PS) | 26% | –
21 | TTAGAATAGTCTTCAG (sugars k3 d10 k3, PS) | 52% | –
22 | TGAACAGTCTTAAACC (sugars k3 d10 k3, PS) | 56% | –
23 | ATACTGAAATTGATAC (sugars k3 d10 k3, PS) | 11% | –
24 | AAGTTTGTTAGAGTGC (sugars k3 d10 k3, PS) | 74% | –

Row | Sequence | target mRNA inhibition (1 µM) | also measured
25 | TTAGTCTTGATGTAGT (sugars k3 d10 k3, PS) | 61% | –
26 | CTCTTGACAATGGTTG (sugars k3 d10 k3, PS) | 50% | –
27 | CTTTTTATAGACTGGG (sugars k3 d9 k3 e1, PS) | 44% | –
28 | TCACCTTTCATAATGT (sugars k3 d9 k3 e1, PS) | 41% | –
29 | GTTAATGTAGTGTTTA (sugars k3 d10 k3, PS) | 77% | target mRNA inhibition (0.02 µM): 7%; target mRNA inhibition (0.078 µM): 25%; target mRNA inhibition (0.313 µM): 45%; target mRNA inhibition (1.25 µM): 78%; target mRNA inhibition (5 µM): 92%
30 | TGCTGCATTAATGCCA (sugars k3 d1 m1 d8 k3, PS) | 32% | –
31 | TTAGCTTAAACTCCAA (sugars k3 d10 k3, PS) | 78% | target mRNA inhibition (0.02 µM): 0%; target mRNA inhibition (0.078 µM): 18%; target mRNA inhibition (0.313 µM): 38%; target mRNA inhibition (1.25 µM): 75%; target mRNA inhibition (5 µM): 82%
32 | GGGTCCACTTTTGGTG (sugars k3 d10 k3, PS) | 13% | –
33 | TTGATGTAGTGGGAGT (sugars k3 d10 k3, PS) | 68% | –
34 | ATCTTAAGGATCATTG (sugars k3 d10 k3, PS) | 7% | –
35 | CTTATTGGTAAGTATT (sugars k3 d9 k3 e1, PS) | 24% | –
36 | AAGGAGTAGTGGAGCC (sugars k3 d10 k3, PS) | 38% | –
37 | TGATTTAGAGAGCGAT (sugars k3 d10 k3, PS) | 35% | –
38 | CGATTGTTACATCACC (sugars k3 d10 k3, PS) | 47% | –
39 | ATAGTCCATGCAAAAG (sugars k3 d10 k3, PS) | 43% | –
40 | ATTCCATCTATCAGAC (sugars k3 d10 k3, PS) | 7% | –
41 | TCTTAATTACATTCCC (sugars k3 d10 k3, PS) | 64% | –
42 | TATGGTAAGCCCCATG (sugars k3 d10 k3, PS) | 30% | –
43 | TAGTGGACTTCATTAG (sugars kkdddddddddkekek, PS) | 41% | –
44 | ACAGAGAATTGTTTAG (sugars k3 d10 k3, PS) | 39% | –
45 | TATAGACTGGGTAGGA (sugars k3 d10 k3, PS) | 61% | –
46 | TTGACTGCTGCTAGTG (sugars k3 d9 k3 e1, PS) | 50% | –
47 | GTTGAGATAAAGCTGC (sugars kkdddddddddkekek, PS) | 40% | –
48 | GGCAAACCTTGAATGA (sugars k3 d10 k3, PS) | 61% | –

Row | Sequence | target mRNA inhibition (1 µM) | also measured
49 | CTAACCTGACACATAT (sugars k3 d10 k3, PS) | 18% | –
50 | GGCACTAAAGGTTTCT (sugars k3 d10 k3, PS) | 62% | target mRNA inhibition (0.02 µM): 0%; target mRNA inhibition (0.078 µM): 26%; target mRNA inhibition (0.313 µM): 41%; target mRNA inhibition (1.25 µM): 66%; target mRNA inhibition (5 µM): 75%
51 | ACTGAAGGCTGTGTAC (sugars k3 d10 k3, PS) | 14% | –
52 | GGATTAATCATGGGAC (sugars k3 d10 k3, PS) | 44% | –
53 | GGCTACAGATTGGAAT (sugars k3 d9 k3 e1, PS) | 28% | –
54 | GCTCCATAATAATAGC (sugars k3 d9 k3 e1, PS) | 8% | –
55 | CACATATGTGAAGAGC (sugars k3 d9 k3 e1, PS) | 74% | target mRNA inhibition (0.02 µM): 6%; target mRNA inhibition (0.078 µM): 9%; target mRNA inhibition (0.313 µM): 39%; target mRNA inhibition (1.25 µM): 57%; target mRNA inhibition (5 µM): 78%
56 | AGTGCTAAGTAGTAAT (sugars k3 d10 k3, PS) | 71% | –
57 | AGATAAAGCTGCCTGC (sugars k3 d9 k3 e1, PS) | 44% | –
58 | TTCCATCTATCAGACT (sugars k3 d1 m1 d8 k3, PS) | 38% | –
59 | GTAAGCTGAGAGTTCT (sugars k3 d10 k3, PS) | 49% | –
60 | CCAACCAAACTTCCAG (sugars k3 d9 k3 e1, PS) | 47% | –
61 | GTCCAGGTTGAGATAA (sugars k3 d9 k3 e1, PS) | 52% | –
62 | TGGTAACGGTGATCAA (sugars k3 d1 m1 d8 k3, PS) | 41% | –
63 | ATGCTAGTAATTGCAT (sugars k3 d10 k3, PS) | 16% | –
64 | GCCCATCCCCTAAGTT (sugars k3 d10 k3, PS) | 33% | –
65 | TTAAAATAGAGTCGGT (sugars k3 d9 k3 e1, PS) | 71% | –
66 | TTTATGTAAGCACAGA (sugars k3 d10 k3, PS) | 70% | –
67 | ATGTTTATGTAAGCAC (sugars k3 d10 k3, PS) | 70% | –
68 | GCTGAGAGTTATCTGG (sugars k3 d10 k3, PS) | 65% | –
69 | GATTTAGAGAGCGATA (sugars k3 d10 k3, PS) | 44% | –
70 | GAATCATGATTGAATT (sugars k3 d10 k3, PS) | 39% | –
71 | TGTAAGAGTCAGTATC (sugars kkdddddddddkekek, PS) | 35% | –
72 | AGGCUAGGGAAATCTT (sugars k3 d1 m1 d8 k3, PS) | 41% | –

Row | Sequence | target mRNA inhibition (1 µM) | also measured
73 | AGTCGGTCACCTTTCA (sugars kkdddddddddkekek, PS) | 55% | –
74 | CACCGTTTTGGGCTAA (sugars k3 d1 m1 d8 k3, PS) | 82% | target mRNA inhibition (0.02 µM): 12%; target mRNA inhibition (0.078 µM): 32%; target mRNA inhibition (0.313 µM): 54%; target mRNA inhibition (1.25 µM): 71%; target mRNA inhibition (5 µM): 84%
75 | TTTCAGATCCCGTTCT (sugars k3 d10 k3, PS) | 45% | –
76 | GGCTTATGAAGTTAGT (sugars k3 d10 k3, PS) | 59% | –
77 | AGCGATAGATCTCTTC (sugars k3 d10 k3, PS) | 31% | –
78 | CCAGGTTGAGATAAAG (sugars k3 d9 k3 e1, PS) | 51% | –
79 | CGTAAAATTGTGTCTC (sugars k3 d10 k3, PS) | 43% | –
80 | TGTAATAGCCAGTACA (sugars k3 d9 k3 e1, PS) | 34% | –
81 | AGCTAATGTATGAGGT (sugars k3 d10 k3, PS) | 56% | –
82 | CCTGTGTTAGCTTTAA (sugars k3 d10 k3, PS) | 67% | –
83 | GCCCTTAAGTCATTTT (sugars k3 d10 k3, PS) | 25% | –
84 | TATTCACCACGATTGT (sugars k3 d10 k3, PS) | 2% | –
85 | CATCTTAAGATACCCA (sugars k3 d9 k3 e1, PS) | 76% | target mRNA inhibition (0.02 µM): 0%; target mRNA inhibition (0.078 µM): 23%; target mRNA inhibition (0.313 µM): 38%; target mRNA inhibition (1.25 µM): 64%; target mRNA inhibition (5 µM): 79%
86 | GAGTAGTGGAGCCAGA (sugars k3 d10 k3, PS) | 44% | –
87 | AGAATAGTCTTCAGCA (sugars k3 d10 k3, PS) | 80% | –
88 | TGTACCAAACTTGCCC (sugars k3 d10 k3, PS) | 53% | –
89 | GTCTTGATGTAGTGGG (sugars kkdddddddddkekek, PS) | 18% | –
90 | TCTAAAGCAGGCTACT (sugars k3 d10 k3, PS) | 32% | –
91 | TAGAGAGCGATAGATC (sugars k3 d10 k3, PS) | 22% | –
92 | CTAAACATCTCTGGGA (sugars k3 d1 m1 d8 k3, PS) | 32% | –
93 | ACAGTTGAGTAGTGTA (sugars k3 d10 k3, PS) | 72% | –
94 | TTGGAATGCTACTTGA (sugars k3 d9 k3 e1, PS) | 56% | –
